The structures appear in SMILES notation.

These results are taken from US20250332266A1, “COMPOUNDS FOR THE DEGRADATION OF EGFR KINASE” (BeiGene Switzerland GmbH, priority 2022, published 2025).

For assay [1], the target named is T1, EGFR L858R/T790M/C797S (H1975-clone #25) (Homo sapiens, UniProt P00533, C797S/L858R/T790M).
T1 construct: expressed in transfected cells; host or cells: H1975 (clone #25), lentiviral transduction, endogenous EGFR knocked out
Briefly: EGFR degradation, HTRF total-EGFR assay, H1975-clone #25 (LTC). It counts as cell-based. Particulars: H1975-clone #25 L858R/T790M/C797S, 16 h treatment. Put shortly: (§1)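 H1975 clones with endogenous EGFR knocked out and homozygous exogenous EGFR mutants (#28 Del19/T790M/C797S; #25 L858R/T790M/C797S) treated 16 h at 37 °C, 8 doses, 5-fold from 10 μM, 0.2% DMSO. Total EGFR measured by HTRF on lysates, normalised to DMSO controls; DC50 and Dmax from curve fit.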

Assay [2] concerns the target EGFR Del19/T790M/C797S (H1975-clone #28) (Homo sapiens, UniProt P00533, T790M/C797S, form not given). Kind of assay: EGFR degradation, HTRF total-EGFR assay, H1975-clone #28 (DTC). As to conditions: H1975-clone #28 Del19/T790M/C797S, 16 h treatment. Type of assay: cell-based. Put shortly:
as §1

T1 sequence (P00533 25-1210 T790M/C797S/L858R): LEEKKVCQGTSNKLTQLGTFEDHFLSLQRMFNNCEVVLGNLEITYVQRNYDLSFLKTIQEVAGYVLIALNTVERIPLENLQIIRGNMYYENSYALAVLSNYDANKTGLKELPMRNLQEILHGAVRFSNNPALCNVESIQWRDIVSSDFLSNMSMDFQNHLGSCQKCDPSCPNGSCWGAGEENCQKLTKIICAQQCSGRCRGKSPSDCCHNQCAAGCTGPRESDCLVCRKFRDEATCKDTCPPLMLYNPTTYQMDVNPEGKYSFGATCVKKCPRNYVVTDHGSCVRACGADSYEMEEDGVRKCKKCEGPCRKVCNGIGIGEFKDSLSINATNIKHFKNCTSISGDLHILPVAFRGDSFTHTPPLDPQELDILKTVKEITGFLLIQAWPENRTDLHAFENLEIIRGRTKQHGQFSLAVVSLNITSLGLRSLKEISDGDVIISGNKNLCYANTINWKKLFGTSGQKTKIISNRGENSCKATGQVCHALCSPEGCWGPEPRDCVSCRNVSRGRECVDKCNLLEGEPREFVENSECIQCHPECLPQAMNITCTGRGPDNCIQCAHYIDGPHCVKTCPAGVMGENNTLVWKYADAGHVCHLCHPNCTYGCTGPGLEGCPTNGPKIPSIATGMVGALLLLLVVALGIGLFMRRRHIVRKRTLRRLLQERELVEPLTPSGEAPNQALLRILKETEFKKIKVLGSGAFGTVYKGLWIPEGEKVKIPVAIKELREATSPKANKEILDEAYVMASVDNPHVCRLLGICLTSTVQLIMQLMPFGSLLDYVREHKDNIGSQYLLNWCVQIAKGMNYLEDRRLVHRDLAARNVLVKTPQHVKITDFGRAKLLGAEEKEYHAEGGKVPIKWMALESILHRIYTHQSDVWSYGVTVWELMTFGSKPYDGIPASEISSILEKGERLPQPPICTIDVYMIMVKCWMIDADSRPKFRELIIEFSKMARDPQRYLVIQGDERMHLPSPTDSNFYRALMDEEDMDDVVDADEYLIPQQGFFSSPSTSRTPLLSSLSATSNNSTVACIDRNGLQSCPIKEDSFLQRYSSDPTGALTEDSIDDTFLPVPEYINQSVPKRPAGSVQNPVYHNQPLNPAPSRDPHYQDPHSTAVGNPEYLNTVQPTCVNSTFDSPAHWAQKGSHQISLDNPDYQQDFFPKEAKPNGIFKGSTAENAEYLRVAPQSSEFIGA
EGFR Del19/T790M/C797S (H1975-clone #28), sequence (P00533 with tags, fused parts or gaps DEL746-750/T790M/C797S, form open): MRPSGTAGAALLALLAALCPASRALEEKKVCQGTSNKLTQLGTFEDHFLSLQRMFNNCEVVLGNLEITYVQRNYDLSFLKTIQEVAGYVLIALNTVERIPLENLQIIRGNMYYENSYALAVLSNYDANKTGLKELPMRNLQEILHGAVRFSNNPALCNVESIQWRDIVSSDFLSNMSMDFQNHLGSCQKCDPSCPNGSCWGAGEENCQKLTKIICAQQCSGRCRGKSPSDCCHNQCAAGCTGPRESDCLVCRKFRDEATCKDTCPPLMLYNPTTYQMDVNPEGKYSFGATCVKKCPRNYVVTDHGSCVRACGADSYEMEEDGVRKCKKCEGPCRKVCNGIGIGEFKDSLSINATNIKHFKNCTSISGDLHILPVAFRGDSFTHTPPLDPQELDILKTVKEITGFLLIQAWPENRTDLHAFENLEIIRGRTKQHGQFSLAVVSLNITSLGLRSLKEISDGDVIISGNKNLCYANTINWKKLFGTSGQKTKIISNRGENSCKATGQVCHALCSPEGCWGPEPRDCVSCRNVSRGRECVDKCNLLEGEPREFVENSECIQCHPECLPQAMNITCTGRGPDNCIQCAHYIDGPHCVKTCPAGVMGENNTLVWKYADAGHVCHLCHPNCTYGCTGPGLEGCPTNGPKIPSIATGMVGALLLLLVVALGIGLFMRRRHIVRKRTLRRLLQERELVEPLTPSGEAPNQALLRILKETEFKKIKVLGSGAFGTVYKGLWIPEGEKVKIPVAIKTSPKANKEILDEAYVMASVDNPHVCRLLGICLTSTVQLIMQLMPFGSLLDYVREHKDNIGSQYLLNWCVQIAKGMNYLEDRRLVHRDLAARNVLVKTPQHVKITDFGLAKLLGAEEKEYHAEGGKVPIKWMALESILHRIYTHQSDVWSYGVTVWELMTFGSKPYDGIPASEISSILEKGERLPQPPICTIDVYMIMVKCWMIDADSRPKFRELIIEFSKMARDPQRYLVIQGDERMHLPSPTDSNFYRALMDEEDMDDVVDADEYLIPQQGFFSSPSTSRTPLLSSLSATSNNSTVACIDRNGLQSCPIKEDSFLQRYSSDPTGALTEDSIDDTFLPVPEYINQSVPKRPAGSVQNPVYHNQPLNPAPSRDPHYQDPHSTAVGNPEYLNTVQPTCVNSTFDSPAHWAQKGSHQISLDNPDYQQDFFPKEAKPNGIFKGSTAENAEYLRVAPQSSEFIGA

As for `Cc1cc2cc(n1)-c1cnn(C)c1OC[C@H]1C[C@@H](CN3/C(=N/C2=O)Nc2ccc(N4CCN(C5CCN(c6ccc(C7CCC(=O)NC7=O)nc6C)CC5)C[C@H]4C)cc23)C1` (stereo partly drawn) [Example 34, 3-(5-(4-((R)-4-((7^1s,7^3S,E)-1^1,2^6-dimethyl-3-oxo-5^2,5^3-dihydro-1^1H,5^1H-9-oxa-4-aza-5(2,1)-benzo[d]imidazola-2(2,4)-pyridina-1(4,5)-pyrazola-7(1,3)-cyclobutanacyclononaphane-5^6-yl)-3-methylpiperazin-1-yl)piperidin-1-yl)-6-methylpyridin-2-yl)piperidine-2,6-dione], the “Degradation H1975 # 25-LTC” value in assay [1] is recorded as 93.3. Besides, the “Degradation H1975 # 28 DTC” value in assay [2] came to 89.6.
Taken in the same sequence, the figures for `Cc1cc2cc(n1)-c1cnn(C)c1OC[C@H]1C[C@@H](CN3/C(=N/C2=O)Nc2ccc(N4CCN(C5CCN(c6ccc(C7CCC(=O)NC7=O)nc6)CC5)C(=O)C4)cc23)C1` (some centres unmarked) [Example 35, 3-(5-(4-(4-((7^1s,7^3s,E)-1^1,2^6-dimethyl-3-oxo-5^2,5^3-dihydro-1^1H,5^1H-9-oxa-4-aza-5(2,1)-benzo[d]imidazola-2(2,4)-pyridina-1(4,5)-pyrazola-7(1,3)-cyclobutanacyclononaphane-5^6-yl)-2-oxopiperazin-1-yl)piperidin-1-yl)pyridin-2-yl)piperidine-2,6-dione] were 85.9 and 72.9.
Consider `Cc1cc2cc(n1)-c1cnn(C)c1OC[C@H]1C[C@@H](CN3/C(=N/C2=O)Nc2ccc(N4CCN(C5CCN(c6ccc(C7CCC(=O)NC7=O)nc6)CC5)C[C@@H]4C)cc23)C1` (stereo partly drawn) [Example 36, 3-(5-(4-((S)-4-((7^1s,7^3R,E)-1^1,2^6-dimethyl-3-oxo-5^2,5^3-dihydro-1^1H,5^1H-9-oxa-4-aza-5(2,1)-benzo[d]imidazola-2(2,4)-pyridina-1(4,5)-pyrazola-7(1,3)-cyclobutanacyclononaphane-5^6-yl)-3-methylpiperazin-1-yl)piperidin-1-yl)pyridin-2-yl)piperidine-2,6-dione], for which the “Degradation H1975 # 25-LTC” value in assay [1] amounted to 87.7. Further, in assay [2], the “Degradation H1975 # 28 DTC” value worked out at 78.0.
On to `Cc1cc2cc(n1)-c1cnn(C)c1OC[C@H]1C[C@@H](CN3/C(=N/C2=O)Nc2ccc(N4CCN(CC5CN(c6cnc(C7CCC(=O)NC7=O)cc6C)C5)C[C@@H]4C)cc23)C1` (stereo partly drawn) [Example 37, 3-(5-(3-(((S)-4-((7^1s,7^3R,E)-1^1,2^6-dimethyl-3-oxo-5^2,5^3-dihydro-1^1H,5^1H-9-oxa-4-aza-5(2,1)-benzo[d]imidazola-2(2,4)-pyridina-1(4,5)-pyrazola-7(1,3)-cyclobutanacyclononaphane-5^6-yl)-3-methylpiperazin-1-yl)methyl)azetidin-1-yl)-4-methylpyridin-2-yl)piperidine-2,6-dione], for which the “Degradation H1975 # 25-LTC” value in assay [1] was determined as 80.7. In assay [2], the “Degradation H1975 # 28 DTC” value came out at 79.4.
Taken in the same sequence, the figures for `Cc1cc2cc(n1)-c1cnn(C)c1OC[C@H]1C[C@@H](CN3/C(=N/C2=O)Nc2ccc(N4CCN(C5CCN(c6cnc(C7CCC(=O)NC7=O)cc6C)CC5)CC4)cc23)C1` (some centres unmarked) [Example 40, 3-(5-(4-(4-((7^1s,7^3s,E)-1^1,2^6-dimethyl-3-oxo-5^2,5^3-dihydro-1^1H,5^1H-9-oxa-4-aza-5(2,1)-benzo[d]imidazola-2(2,4)-pyridina-1(4,5)-pyrazola-7(1,3)-cyclobutanacyclononaphane-5^6-yl)piperazin-1-yl)piperidin-1-yl)-4-methylpyridin-2-yl)piperidine-2,6-dione] were 93.6 and 91.5.
With `Cc1cc2cc(n1)-c1cnn(C)c1OC[C@H]1C[C@@H](CN3/C(=N/C2=O)Nc2ccc(N(C)C4CN(C5CCN(c6cnc(C7CCC(=O)NC7=O)cc6C)CC5)C4)cc23)C1` (some centres unmarked) [Example 41, 3-(5-(4-(3-(((7^1s,7^3s,E)-1^1,2^6-dimethyl-3-oxo-5^2,5^3-dihydro-1^1H,5^1H-9-oxa-4-aza-5(2,1)-benzo[d]imidazola-2(2,4)-pyridina-1(4,5)-pyrazola-7(1,3)-cyclobutanacyclononaphane-5^6-yl)(methyl)amino)azetidin-1-yl)piperidin-1-yl)-4-methylpyridin-2-yl)piperidine-2,6-dione], the “Degradation H1975 # 25-LTC” value in assay [1] amounted to 84.2. Also, the “Degradation H1975 # 28 DTC” value in assay [2] worked out at 80.1.
In the same order, the values of `Cc1cc2cc(n1)-c1cnn(C)c1OC[C@H]1C[C@@H](CN3/C(=N/C2=O)Nc2ccc(N4C[C@H]5C[C@@H]4CN5C4CCN(c5ccc(C6CCC(=O)NC6=O)nc5C)CC4)cc23)C1` (stereo partly drawn) [Example 43, 3-(5-(4-((1R,4R)-5-((7^1s,7^3S,E)-1^1,2^6-dimethyl-3-oxo-5^2,5^3-dihydro-1^1H,5^1H-9-oxa-4-aza-5(2,1)-benzo[d]imidazola-2(2,4)-pyridina-1(4,5)-pyrazola-7(1,3)-cyclobutanacyclononaphane-5^6-yl)-2,5-diazabicyclo[2.2.1]heptan-2-yl)piperidin-1-yl)-6-methylpyridin-2-yl)piperidine-2,6-dione] are 87.1 and 75.5.
Regarding `Cc1cc2cc(n1)-c1cnn(C)c1OC[C@H]1C[C@@H](CN3/C(=N/C2=O)Nc2ccc(N4CCC(N5CCN(c6ccc(C7CCC(=O)NC7=O)nc6C)C[C@@H]5C)CC4)cc23)C1` (stereo partly drawn) [Example 44, 3-(5-((S)-4-(1-((7^1s,7^3R,E)-1^1,2^6-dimethyl-3-oxo-5^2,5^3-dihydro-1^1H,5^1H-9-oxa-4-aza-5(2,1)-benzo[d]imidazola-2(2,4)-pyridina-1(4,5)-pyrazola-7(1,3)-cyclobutanacyclononaphane-5^6-yl)piperidin-4-yl)-3-methylpiperazin-1-yl)-6-methylpyridin-2-yl)piperidine-2,6-dione], the “Degradation H1975 # 25-LTC” value in assay [1] was determined as 91.3. In assay [2], the “Degradation H1975 # 28 DTC” value is listed as 80.7.
In the same order, the values of `Cc1cc2cc(n1)-c1cnn(C)c1OC[C@H]1C[C@@H](CN3/C(=N/C2=O)Nc2ccc(N4CCC(N5C[C@@H]6C[C@H]5CN6c5ccc(C6CCC(=O)NC6=O)nc5C)CC4)cc23)C1` (stereo partly drawn) [Example 47, 3-(5-((1S,4S)-5-(1-((7^1s,7^3R,E)-1^1,2^6-dimethyl-3-oxo-5^2,5^3-dihydro-1′H,5^1H-9-oxa-4-aza-5(2,1)-benzo[d]imidazola-2(2,4)-pyridina-1(4,5)-pyrazola-7(1,3)-cyclobutanacyclononaphane-5^6-yl)piperidin-4-yl)-2,5-diazabicyclo[2.2.1]heptan-2-yl)-6-methylpyridin-2-yl)piperidine-2,6-dione] are 93.3 and 78.5.
Turning to `Cc1cc2cc(n1)-c1cnn(C)c1OC[C@H]1C[C@@H](CN3/C(=N/C2=O)Nc2ccc(N4CCN([C@@H]5CCN(c6ccc(C7CCC(=O)NC7=O)nc6C)C[C@H]5F)CC4)cc23)C1` (stereo partly drawn) [Example 57, 3-(5-((3R,4R)-4-(4-((7^1s,7^3S,E)-1^1,2^6-dimethyl-3-oxo-5^2,5^3-dihydro-1^1H,5^1H-9-oxa-4-aza-5(2,1)-benzo[d]imidazola-2(2,4)-pyridina-1(4,5)-pyrazola-7(1,3)-cyclobutanacyclononaphane-5^6-yl)piperazin-1-yl)-3-fluoropiperidin-1-yl)-6-methylpyridin-2-yl)piperidine-2,6-dione], the “Degradation H1975 # 25-LTC” value in assay [1] was 89.9. The “Degradation H1975 # 28 DTC” value in assay [2] amounted to 87.5.
As for `Cc1cc2cc(n1)-c1cnn(C)c1OC[C@H]1C[C@@H](CN3/C(=N/C2=O)Nc2ccc(N4CCN([C@@H]5CCN(c6ccc(C7CCC(=O)NC7=O)nc6C)C[C@@H]5F)CC4)cc23)C1` (stereo partly drawn) [Example 62, 3-(5-((3S,4R)-4-(4-((7^1s,7^3S,E)-1^1,2^6-dimethyl-3-oxo-5^2,5^3-dihydro-1^1H,5^1H-9-oxa-4-aza-5(2,1)-benzo[d]imidazola-2(2,4)-pyridina-1(4,5)-pyrazola-7(1,3)-cyclobutanacyclononaphane-5^6-yl)piperazin-1-yl)-3-fluoropiperidin-1-yl)-6-methylpyridin-2-yl)piperidine-2,6-dione], the “Degradation H1975 # 25-LTC” value in assay [1] was determined as 91.5. The “Degradation H1975 # 28 DTC” value in assay [2] amounted to 89.1.
In the same order, the values of `Cc1cc2cc(n1)-c1cnn(C)c1OC[C@H]1C[C@@H](CN3/C(=N/C2=O)Nc2ccc(N4CCN([C@@H]5CCN(c6cc(F)c([C@H]7CCC(=O)NC7=O)c(F)c6)C[C@@H]5F)CC4)cc23)C1` [Example 66, (R)-3-(4-((3S,4R)-4-(4-((7^1s,7^3S,E)-1^1,2^6-dimethyl-3-oxo-5^2,5^3-dihydro-1^1H,5^1H-9-oxa-4-aza-5(2,1)-benzo[d]imidazola-2(2,4)-pyridina-1(4,5)-pyrazola-7(1,3)-cyclobutanacyclononaphane-5^6-yl)piperazin-1-yl)-3-fluoropiperidin-1-yl)-2,6-difluorophenyl)piperidine-2,6-dione] are 75.9 and 82.1.
In the same order, the values of `Cc1cc2cc(n1)-c1cnn(C)c1OC[C@H]1C[C@@H](CN3/C(=N/C2=O)Nc2ccc(N4CCC(N5CCN(c6cc(F)c([C@H]7CCC(=O)NC7=O)c(F)c6)CC5=O)CC4)cc23)C1` [Example 70, (R)-3-(4-(4-(1-((7^1s,7^3s,E)-1^1,2^6-dimethyl-3-oxo-5^2,5^3-dihydro-1^1H,5^1H-9-oxa-4-aza-5(2,1)-benzo[d]imidazola-2(2,4)-pyridina-1(4,5)-pyrazola-7(1,3)-cyclobutanacyclononaphane-5^6-yl)piperidin-4-yl)-3-oxopiperazin-1-yl)-2,6-difluorophenyl)piperidine-2,6-dione] are 91.8 and 88.7.
